The source of these data is patent US20160251332A1, “Herbicidal Compounds” (SYNGENTA PARTICIPATIONS AG, priority 2013, published 2016).

Assay type in all cases: in vivo
The subject of assay [1] is Abutilon theophrasti. Briefly: Post-emergence herbicidal activity, ABUTH. To be noted: Application post-emergence, 1000 g/Ha, evaluated after 13 days, scale 0-5. Here is the method: (§1) Seeds of a variety of test species were sown in standard soil in pots. After 8 days cultivation (post-emergence) under controlled conditions in a glasshouse (at 24/16° C., day/night; 14 hours light; 65% humidity), the plants were sprayed with an aqueous spray solution derived from the formulation of the technical active ingredient in acetone/water (50:50) solution containing 0.5% Tween 20 (polyoxyethelyene sorbitan monolaurate, CAS RN 9005-64-5). The test plants were then grown in a glasshouse under controlled conditions (at 24/16° C., day/night; 14 hours light; 65% humidity) and watered twice daily. After 13 days, the test was evaluated (5=total damage to plant; 0=no damage to plant).

The subject of assay [2] is Alopecurus myosuroides. Put plainly: Pre-emergence herbicidal activity, ALOMY. To be noted: Application pre-emergence, 1000 g/Ha, evaluated after 13 days, scale 0-5. Here is the method:
as §1, with “After” for “After 8 days”, “for one day (pre-emergence)” for “(post-emergence)”

The test system of assay [3] is Echinochloa crus-galli. Briefly: Post-emergence herbicidal activity, ECHCG. To be noted: Application post-emergence, 1000 g/Ha, evaluated after 13 days, scale 0-5. The protocol:
as §1

Assay [4] relates to Abutilon theophrasti. Put plainly: Pre-emergence herbicidal activity, ABUTH. To be noted: Application pre-emergence, 1000 g/Ha, evaluated after 13 days, scale 0-5. The protocol: as §1, with “After” for “After 8 days”, “for one day (pre-emergence)” for “(post-emergence)”
The subject of assay [5] is Amaranthus retroflexus. Put plainly: Pre-emergence herbicidal activity, AMARE. To be noted: Application pre-emergence, 1000 g/Ha, evaluated after 13 days, scale 0-5. The protocol: as §1, with “After” for “After 8 days”, “for one day (pre-emergence)” for “(post-emergence)”
In assay [6] the test system is Setaria faberi. Put plainly: Pre-emergence herbicidal activity, SETFA. The note with it: Application pre-emergence, 1000 g/Ha, evaluated after 13 days, scale 0-5. The protocol:
as §1, with “After” for “After 8 days”, “for one day (pre-emergence)” for “(post-emergence)”

The subject of assay [7] is Alopecurus myosuroides. Briefly: Post-emergence herbicidal activity, ALOMY. To be noted: Application post-emergence, 1000 g/Ha, evaluated after 13 days, scale 0-5. Here is the method: as §1
Assay [8] deals with Setaria faberi. Put plainly: Post-emergence herbicidal activity, SETFA. The note with it: Application post-emergence, 1000 g/Ha, evaluated after 13 days, scale 0-5. The protocol:
as §1

Assay [9] deals with Zea mays. Put plainly: Pre-emergence herbicidal activity, ZEAMX. To be noted: Application pre-emergence, 1000 g/Ha, evaluated after 13 days, scale 0-5. The protocol: as §1, with “After” for “After 8 days”, “for one day (pre-emergence)” for “(post-emergence)”
For assay [10], the system named is Echinochloa crus-galli. Briefly: Pre-emergence herbicidal activity, ECHCG. The note with it: Application pre-emergence, 1000 g/Ha, evaluated after 13 days, scale 0-5. The protocol: as §1, with “After” for “After 8 days”, “for one day (pre-emergence)” for “(post-emergence)”
The subject of assay [11] is Amaranthus retroflexus. Briefly: Post-emergence herbicidal activity, AMARE. The note with it: Application post-emergence, 1000 g/Ha, evaluated after 13 days, scale 0-5. Here is the method:
as §1

The test system of assay [12] is Zea mays. Briefly: Post-emergence herbicidal activity, ZEAMX. The note with it: Application post-emergence, 1000 g/Ha, evaluated after 13 days, scale 0-5. Here is the method: as §1

Take `COCc1cccc(-c2cnc(N3C(=O)N(C)CC3O)cc2C(F)(F)F)c1` (stereo not drawn) [Compound A13]: the ABUTH damage score in [1] was determined as 5; in [4], 2. Further, the ALOMY damage score in assay [2] was found to be 2; in assay [7] it was 3. Moreover, the ECHCG damage score in assay [3] is given as 4; in assay [10], 2. Also, the AMARE damage score is listed as 3 in assay [5] and 5 in [11]. Further, the SETFA damage score is reported as 2 in assay [6] and 4 in [8]. The ZEAMX damage score in assay [9] was found to be 1; in [12], 2.
On to `CN1CC(O)N(c2cc(C(F)(F)F)c(-c3ccsc3)cn2)C1=O` (stereo not drawn) [Compound A4, 4-hydroxy-1-methyl-3-[5-(3-thienyl)-4-(trifluoromethyl)-2-pyridyl]imidazolidin-2-one], for which the ABUTH damage score in [1] turned out to be 5; in assay [4], 2. The ALOMY damage score in assay [2] was 3; in assay [7] it was 4. In addition, the results for the ECHCG damage score in assay [3] and in assay [10] were 5 and 4, respectively. For the same molecule, the AMARE damage score in [5] and in assay [11] was 5 throughout. For the same molecule, the SETFA damage score came to 3 in [6] and 5 in assay [8]. The ZEAMX damage score in assay [9] is reported as 2; in assay [12], 0.
Regarding `CN1CC(O)N(c2cc(C(F)(F)F)c(-c3cccc([S+](C)[O-])c3)cn2)C1=O` (stereo not drawn) [Compound A11], the ABUTH damage score in assay [1] is given as 5; in [4] it was 2. Further, the ALOMY damage score was 1 in [2] and 2 in assay [7]. Further, the values for the ECHCG damage score in [3] and in assay [10] were 3 and 1, respectively. Also, the AMARE damage score in assay [5] worked out at 2; in [11] it was 5. For the same molecule, the SETFA damage score in [6] amounted to 1; in [8], 3. The values for the ZEAMX damage score in [9] and in assay [12] were 0 and 2, respectively.
In the case of `CN1CC(O)N(c2cc(C(F)(F)F)c(-c3ccc(F)cc3)cn2)C1=O` (stereo not drawn) [Compound A2], the ABUTH damage score in assay [1] is 5; in [4], 4. For the same molecule, the figures for the ALOMY damage score in [2] and in assay [7] were 4 and 5, respectively. Also, the ECHCG damage score in assay [3] and in assay [10] was 5 in each case. For the same molecule, the AMARE damage score in [5] and in [11] was 5 each time. Further, the SETFA damage score in [6] and in assay [8] was 5 each time. The ZEAMX damage score in assay [9] stood at 5; in assay [12], 4.
Regarding `COc1ccccc1-c1cnc(N2C(=O)N(C)CC2O)cc1C(F)(F)F` (stereo not drawn) [Compound A18], the results for the ABUTH damage score in assay [1] and in assay [4] were 5 and 2, respectively. The ALOMY damage score in assay [2] and in assay [7] was 2 in each case. For the same molecule, the ECHCG damage score was determined as 4 in [3] and 3 in assay [10]. The AMARE damage score in [5] was determined as 2; in assay [11], 5. For the same molecule, the SETFA damage score is recorded as 1 in assay [6] and 2 in assay [8]. In addition, the ZEAMX damage score in assay [9] was 1; in assay [12], 5.
Regarding `CN1CC(O)N(c2cc(C(F)(F)F)c(-c3ccccc3)cn2)C1=O` (stereo not drawn) [Compound A3], the ABUTH damage score in assay [1] and in [4] was 5 in each case. In addition, the ALOMY damage score stood at 4 in [2] and 5 in assay [7]. The ECHCG damage score in assay [3] and in [10] was 5 each time. The AMARE damage score in [5] and in [11] was 5 each time. The SETFA damage score in [6] and in assay [8] was 5 each time. Also, the ZEAMX damage score in assay [9] came to 4; in assay [12], 2.
As to `COc1ccc(-c2cnc(N3C(=O)N(C)CC3O)cc2C(F)(F)F)c(OC)c1` (stereo not drawn) [Compound A15], the ABUTH damage score in [1] is 5; in assay [4] it was 3. The ALOMY damage score in [2] is listed as 1; in assay [7], 3. Further, the ECHCG damage score was 4 in assay [3] and 1 in [10]. Also, the AMARE damage score in assay [5] was 2; in [11], 5. For the same molecule, the SETFA damage score was determined as 2 in assay [6] and 3 in assay [8]. Further, the ZEAMX damage score was determined as 0 in assay [9] and 1 in assay [12].
With `CN1CC(O)N(c2cc(C(F)(F)F)c(Cl)cn2)C1=O` (stereo not drawn) [Compound A36], the ABUTH damage score in assay [1] and in assay [4] was 5 throughout. Also, the ALOMY damage score in assay [2] was determined as 4; in assay [7], 5. Besides, the ECHCG damage score in assay [3] and in assay [10] was 5 in each case. Also, the AMARE damage score in [5] and in assay [11] was 5 in each case. Further, the SETFA damage score in [6] is 4; in assay [8], 5. The ZEAMX damage score was determined as 2 in assay [9] and 5 in [12].
With `CN1CC(O)N(c2cc(C(F)(F)F)c(-c3ccc(C#N)s3)cn2)C1=O` (stereo not drawn) [Compound A14], the ABUTH damage score in assay [1] is reported as 5; in assay [4] it was 3. Besides, the ALOMY damage score in [2] was 2; in assay [7], 4. For the same molecule, the ECHCG damage score in [3] was 5; in assay [10], 3. Moreover, the AMARE damage score in [5] and in [11] was 5 in each case. The SETFA damage score in [6] turned out to be 2; in assay [8], 5. Moreover, the ZEAMX damage score in assay [9] is reported as 2; in [12], 3.
Regarding `CN1CC(O)N(c2cc(C(C)(F)F)ccn2)C1=O` (stereo not drawn) [Compound A37], the ABUTH damage score in assay [1] and in assay [4] was 5 in each case. Besides, the ALOMY damage score in [2] worked out at 4; in [7] it was 5. Moreover, the ECHCG damage score in [3] was 4; in assay [10] it was 3. The AMARE damage score in [5] and in assay [11] was 5 throughout. Also, the SETFA damage score in [6] is recorded as 1; in assay [8], 5. The ZEAMX damage score in [9] was found to be 2; in assay [12], 4.
In the case of `Cc1ccccc1-c1cnc(N2C(=O)N(C)CC2O)cc1C(F)(F)F` (stereo not drawn) [Compound A7], the ABUTH damage score in assay [1] is 5; in [4] it was 2. Also, the results for the ALOMY damage score in assay [2] and in assay [7] were 1 and 4, respectively. For the same molecule, the ECHCG damage score in [3] came out at 5; in assay [10] it was 1. In addition, the AMARE damage score in [5] amounted to 3; in [11] it was 5. Besides, the SETFA damage score in assay [6] is recorded as 1; in [8], 5. The ZEAMX damage score in assay [9] was 1; in assay [12], 3.
As to `CN1CC(O)N(c2cc(C(F)(F)F)c(-c3cccc(C#N)c3)cn2)C1=O` (stereo not drawn) [Compound A17], the ABUTH damage score in assay [1] and in assay [4] was 5 in each case. Further, the values for the ALOMY damage score in assay [2] and in assay [7] were 4 and 5, respectively. Besides, the ECHCG damage score in assay [3] and in assay [10] was 5 each time. Besides, the AMARE damage score in assay [5] and in [11] was 5 in each case. For the same molecule, the SETFA damage score in assay [6] stood at 4; in assay [8], 5. In [9], the ZEAMX damage score is reported as 2.
For the molecule `COC(F)(F)c1ccnc(N2C(=O)N(C)CC2O)c1` (stereo not drawn) [Compound A50], the ABUTH damage score was determined as 5 in assay [1] and 2 in assay [4]. For the same molecule, the ECHCG damage score in assay [3] was 5; in assay [10], 1. Also, the AMARE damage score in [5] and in assay [11] was 5 throughout. In addition, the SETFA damage score in [6] is listed as 2; in assay [8], 5. In addition, the ZEAMX damage score in assay [9] and in assay [12] was 1 throughout.
